Source: article PMC4980415 (Psychopharmacology, 2016)

Key:
in vivo = conditions: male, Sprague-Dawley, rat, oral
Method: Standard methods of tissue extraction were used. […] Brain homogenate or plasma was then extracted with two volumes of acetonitrile and clarified by centrifugation at 12,000g for 20 min. […] Brain and plasma concentration and ratio (brain/plasma) were calculated for each compound.

[1] = tested on: conditioned avoidance responding in male Wistar rats; test: Conditioned avoidance response (CAR); format: in vivo, rat
Method: The drug was administered, per os (po), by gavage to rats in a volume of 2 ml/kg body weight. Oral dosing solutions were prepared fresh daily. […] The pH of the dosing solution was adjusted to ~pH 5.5 by dropwise addition of 0.1 N NaOH in saline and volume adjusted by addition of saline in preparation for intraperitoneal (ip) dosing. […] Control treatments were always the vehicle solutions of the corresponding drugs.
Avoidance behavior, escape behavior, escape failures, and inter-trial crosses were recorded, as described here: (1) avoidance (response to CS within 10 s); (2) escape (response to CS + UCS); and (3) escape failure (if the rat was unable to respond to the shock by moving into the opposite compartment within 50 s, the trial was terminated). The inter-trial interval (end of trial to start of new trial) varied randomly between 20 and 40 s. Rats were trained for five consecutive days and adapted to the shuttle box 5 min before each training session. Training sessions consisted of about 20 trials, randomly distributed over 15 min. Only rats that performed at least 90 % avoidance on the last day of training were included in the experiments. All subsequent test sessions were preceded by a pre-test to verify continued performance in the paradigm. Pre-tests and test sessions consisted of approximately ten trials, each randomly distributed over a 7.5-min period. […] Experimental days were always separated by at least two non-experimental days. Experimental tests were separated by at least 2 days to insure drug washout.
Results from the conditioned avoidance responding (CAR) protocol were analyzed using non-parametric procedures.

concentration at 1 h (in vivo; brain) [ng/mL]	concentration at 1 h (in vivo; plasma) [ng/mL]	concentration at 1 h (in vivo; plasma, plasma concentration, risperidone 2 mg/kg po plus vehicle, 1 h, ± SD, n = 3) [ng/mL]	SMILES	effect on percent avoidances ([1]; 0.2 mg/kg i.p., sub-threshold dose)	effect on avoidance behaviors ([1]; 0.8 mg/kg i.p., effective dose)
15 ± 5	197 ± 91	162 ± 70	Cc1nc2n(c(=O)c1CCN1CCC(c3noc4cc(F)ccc34)CC1)CCCC2O (centres unmarked) [Paliperidone, paliperidone]		
			Cc1nc2n(c(=O)c1CCN1CCC(c3noc4cc(F)ccc34)CC1)CCCC2 [Risperidone, reference compound]	no effect	significant inhibition
